Results reported in article PMC12002130, “Proteorhodopsin insights into the molecular mechanism of vectorial proton transport” (Science Advances, 2025).

Columns and labels:
MAR-Arf1L8K,Q71L chimera [1] = target: T1, MAR-Arf1L8K,Q71L chimera (Candidatus Actinomarina minuta, UniProt S5DM51); assay: X-ray crystallography; assay type: binding; conditions: covalent; Schiff base to Lys200 of MAR; dark (ground) state, pH 7.0; all-trans form taken from MAR ground state
T1 construct: MAR fused to bovine Arf1 (L8K, Q71L) as crystallisation spacer on the cytoplasmic side; C-terminal GSGGSHHHHHH tag; expressed in E. coli C41(DE3); retinal site wholly in MAR
T1 sequence (P84080 2-181 L8K/Q71L, one chain of several, further chain): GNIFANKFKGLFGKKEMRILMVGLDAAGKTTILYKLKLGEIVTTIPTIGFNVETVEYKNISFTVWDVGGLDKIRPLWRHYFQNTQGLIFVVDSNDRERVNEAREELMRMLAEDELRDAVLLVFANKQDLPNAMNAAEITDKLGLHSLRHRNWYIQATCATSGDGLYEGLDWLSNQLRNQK

MAR-Arf1L8K,Q71L chimera [2] = target: T1, MAR-Arf1L8K,Q71L chimera; assay: X-ray crystallography, cryotrapped N state; assay type: binding; conditions: covalent; photoisomer formed in situ by 532-nm light; pH 7.0; 2.3 A; isomer not assignable from density alone
Asp72 (position 72, …) = assay: UV-vis; conditions: dark (ground) state, solubilized MAR with all-trans retinal

Molecule: CC1=C(/C=C/C(C)=C/C=C/C(C)=C/C=O)C(C)(C)CCC1 [all-trans retinal]
- X-ray crystallography (MAR-Arf1L8K,Q71L chimera [1]): The conformation of the MAR molecule is similar to that in the ground state

Molecule: CC1=C(/C=C/C(C)=C/C=C/C(C)=C\C=O)C(C)(C)CCC1 [13-cis,15-anti retinal]
- X-ray crystallography, cryotrapped N state (MAR-Arf1L8K,Q71L chimera [2]): the retinal conformation in the N state represents the 13-cis,15-anti form

B1: MAR (marine actinobacterial rhodopsin, MacR), a proteorhodopsin (Candidatus Actinomarina minuta) (protein)
chain: MEELTYRLFMVATVGMLAGTVFLLASSREVKPEHRRGVYISALVCGIAWYHYQKMGASWESGSYDTGLRYVDWVLTVPLMFVEVLAVTRKGAAYNEAVRNWGIAATVMIGAGYYGETSAAGSNEYWTGFVIAMATYVWLMRNLQAEGEGLKGDQAVAFENIKNLILVGWIIYPLGYIAPVVGDFDAIREVLYTIADIINKVGLGVLVLQMARVQSGEKVSPGGGSHHHHHH
- pKa (Asp72 (position 72, …)): ~7.4
